Laboratory results taken from publication PMC5785997, “2-Phenylquinazolinones as dual-activity tankyrase-kinase inhibitors” (Scientific Reports, 2018).

Tests used:
TNKS2 = TNKS2 (Homo sapiens, UniProt Q9H2K2); assay: NAD+ quantification activity assay, TNKS2; assay type: biochemical; settings: TNKS2 IC50, NAD+ 500 nM
Method: The activity assay used to measure the potency of the compounds against TNKS2 is based on the quantification of NAD^+[38]. The reactions were carried out in 96-well plate (Greiner bio-one, U-shaped) and the conditions were the same as reported earlier (Table S5)[24].
The compounds were stored in 100% DMSO at −20 °C. All the compounds were diluted in the TNKS2 assay buffer (50 mM Bis-Tris Propane, 0.5 mM TCEP, 0.01% Triton-100x). Control reactions were used to exclude the effect of compound fluorescence and quenching from the calculations. […] The pIC50 values were calculated and fitted with nonlinear regression using 4-parameters with GraphPad Prism (version 5.0 for windows).
(§1) Protein (nM) NAD+ (nM) Incubation Buffer
(§2) Kinase [ATP] Substrate Incubation Reaction buffer

ARTD5/TNKS1 = ARTD5/TNKS1 (Homo sapiens, UniProt O95271); assay: NAD+ quantification activity assay, TNKS1; assay type: biochemical; settings: NAD+ 500 nM
Chain of ARTD5/TNKS1 (O95271 1112-1317): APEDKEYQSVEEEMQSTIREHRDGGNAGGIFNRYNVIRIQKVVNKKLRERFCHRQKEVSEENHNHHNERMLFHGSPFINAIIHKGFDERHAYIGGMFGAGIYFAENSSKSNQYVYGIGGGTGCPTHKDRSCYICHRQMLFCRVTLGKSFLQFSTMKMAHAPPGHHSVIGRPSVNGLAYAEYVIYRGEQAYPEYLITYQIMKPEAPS
Method: as §1, §2

[1] = test system: Wnt/β-catenin signaling (TCF/LEF Reporter HEK293 Cell Line); assay: Wnt signaling TCF/LEF reporter assay in HEK293 cells; assay type: cell-based, human; settings: Homo sapiens; for inhibition at 2 µM: HEK293, 2 µM compound, Wnt-reporter cell assay, read-out: Wnt (Inh.%, 2 µM)
Method: The Wnt assay was performed using a procedure modified from the BPS Bioscience protocol. Details are given in the Supplementary Methods. […]
The Wnt Signaling Pathway TCF/LEF Reporter HEK293 Cell Line (BPS Bioscience, catalog […]
Reporter HEK293 cells were grown at 37 °C with 5% CO2 using Dulbecco's Modified Eagle's Medium (DMEM, Sigma), supplemented with 10% of fetal bovine serum (Lonza), 1% non-essential amino acid (Sigma), 1X of penicillin and streptomycin (Sigma), and 400 µg/ml of Geneticin (Roche). Wnt-3a and L cells (ATCC) were cultured in Dulbecco’s modified Eagle’s medium supplemented with 10% fetal bovine serum, penicillin and streptomycin at 37 °C in a 5%
CO2. Wnt3a and control conditioned medium preparation has been described previously1. The Wnt assay was performed using a procedure modified from the BPS Bioscience protocol. 30,000 HEK293 cells/well in 40 µl of serum-free DMEM were plated on 96-well plate (white wells, clear […]
bottom, PerkinElmer). 10 µl of 50 mM LiCl in serum-free DMEM with 5x concentration of DMSO or tankyrase inhibitors was added. After 16 hours of incubation, 25 µl of Wnt3a or control conditioned medium supplemented with DMSO or tankyrase inhibitors was added on cells and cells were incubated for additional 24 hours. After the second incubation, the 96-well plates were balanced in room temperature for 30 minutes. Wnt3a induced luciferase activity was determined using ONE-Glo Luciferase Assay System (Promega) according to manufacturer’s protocol. […]
Difference Fourier method deriving the starting phases from 3U9H. The refinement of the structures was done with REFMAC5.5,6 Final manual building, analysis and visualization of the structures were made with Coot7 and PyMOL (www.pymol.org). All chemical structures were drawn with Marvin (Marvin 5.7.0 2011, ChemAxon, http://www.chemaxon.com). The docking studies were performed using GOLD software.8

ARTD1/PARP1 = ARTD1/PARP1 (Homo sapiens, UniProt P09874); assay: ARTD profiling, ARTD1
Chain of ARTD1/PARP1 (P09874 whole entry): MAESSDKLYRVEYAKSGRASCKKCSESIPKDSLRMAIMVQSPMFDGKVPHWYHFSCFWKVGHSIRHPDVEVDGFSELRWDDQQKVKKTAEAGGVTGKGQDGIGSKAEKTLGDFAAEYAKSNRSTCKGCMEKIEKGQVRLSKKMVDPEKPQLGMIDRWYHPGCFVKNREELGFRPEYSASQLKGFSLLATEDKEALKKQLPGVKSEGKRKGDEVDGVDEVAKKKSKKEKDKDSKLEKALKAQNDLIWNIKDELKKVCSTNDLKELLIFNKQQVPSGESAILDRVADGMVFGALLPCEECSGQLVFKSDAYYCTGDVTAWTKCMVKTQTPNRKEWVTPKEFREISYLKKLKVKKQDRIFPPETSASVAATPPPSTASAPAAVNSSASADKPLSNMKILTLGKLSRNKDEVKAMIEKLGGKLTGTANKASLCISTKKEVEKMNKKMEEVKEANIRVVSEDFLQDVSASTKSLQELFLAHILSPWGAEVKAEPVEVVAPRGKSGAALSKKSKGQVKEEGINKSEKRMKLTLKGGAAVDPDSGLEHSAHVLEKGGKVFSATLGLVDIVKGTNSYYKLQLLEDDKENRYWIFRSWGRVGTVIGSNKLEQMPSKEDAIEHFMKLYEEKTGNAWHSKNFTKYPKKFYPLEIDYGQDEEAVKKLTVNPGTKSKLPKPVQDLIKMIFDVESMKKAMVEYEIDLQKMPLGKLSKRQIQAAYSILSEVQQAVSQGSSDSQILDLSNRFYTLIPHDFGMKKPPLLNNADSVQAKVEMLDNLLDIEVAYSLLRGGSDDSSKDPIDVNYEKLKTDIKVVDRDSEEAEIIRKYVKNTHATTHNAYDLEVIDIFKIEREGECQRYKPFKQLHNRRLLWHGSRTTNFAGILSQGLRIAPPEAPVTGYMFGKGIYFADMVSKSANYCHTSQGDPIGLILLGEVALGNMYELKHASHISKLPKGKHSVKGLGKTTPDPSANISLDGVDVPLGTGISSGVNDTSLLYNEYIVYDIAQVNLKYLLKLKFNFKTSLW

ARTD2/PARP2 = ARTD2/PARP2 (Homo sapiens, UniProt Q9UGN5); assay: ARTD profiling, ARTD2
Chain of ARTD2/PARP2 (Q9UGN5 whole entry): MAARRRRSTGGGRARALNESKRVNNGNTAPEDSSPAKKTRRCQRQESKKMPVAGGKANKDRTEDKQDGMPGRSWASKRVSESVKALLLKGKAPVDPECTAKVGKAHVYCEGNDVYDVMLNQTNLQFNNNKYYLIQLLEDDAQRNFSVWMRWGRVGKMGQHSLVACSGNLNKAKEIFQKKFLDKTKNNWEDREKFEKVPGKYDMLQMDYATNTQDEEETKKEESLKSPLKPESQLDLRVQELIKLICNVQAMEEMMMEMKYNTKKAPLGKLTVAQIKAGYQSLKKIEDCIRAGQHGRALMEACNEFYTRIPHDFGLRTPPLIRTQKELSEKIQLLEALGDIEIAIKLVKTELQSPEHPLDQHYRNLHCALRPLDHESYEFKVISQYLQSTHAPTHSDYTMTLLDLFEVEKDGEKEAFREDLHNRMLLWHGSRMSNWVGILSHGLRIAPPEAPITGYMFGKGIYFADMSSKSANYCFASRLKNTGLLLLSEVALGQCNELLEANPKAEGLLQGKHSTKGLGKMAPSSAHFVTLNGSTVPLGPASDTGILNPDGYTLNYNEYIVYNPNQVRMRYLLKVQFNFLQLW

ARTD3/PARP3 = biological target: T1, ARTD3/PARP3 (Homo sapiens, UniProt Q9Y6F1); assay: ARTD profiling, ARTD3; assay type: biochemical; settings: NAD+ 500 nM
T1 sequence (Q9Y6F1 1-533): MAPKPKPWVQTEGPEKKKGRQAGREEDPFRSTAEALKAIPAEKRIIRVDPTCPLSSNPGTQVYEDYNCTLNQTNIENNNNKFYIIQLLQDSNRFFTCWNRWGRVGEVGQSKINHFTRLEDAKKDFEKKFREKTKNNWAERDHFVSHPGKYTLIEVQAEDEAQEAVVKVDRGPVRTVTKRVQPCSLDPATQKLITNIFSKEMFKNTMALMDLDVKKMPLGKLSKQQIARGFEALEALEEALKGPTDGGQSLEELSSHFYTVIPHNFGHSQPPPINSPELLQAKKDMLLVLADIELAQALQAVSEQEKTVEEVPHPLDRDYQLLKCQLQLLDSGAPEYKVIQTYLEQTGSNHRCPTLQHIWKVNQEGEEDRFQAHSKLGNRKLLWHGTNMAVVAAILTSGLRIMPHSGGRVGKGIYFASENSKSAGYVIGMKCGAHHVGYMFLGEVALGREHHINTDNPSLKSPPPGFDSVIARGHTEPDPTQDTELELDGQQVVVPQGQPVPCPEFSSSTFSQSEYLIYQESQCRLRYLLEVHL
Method: as §1, §2

ARTD4/PARP4 = biological target: T2, ARTD4/PARP4 (Homo sapiens, UniProt Q9UKK3); assay: ARTD profiling, ARTD4
T2 sequence (Q9UKK3 369-573 limits assumed): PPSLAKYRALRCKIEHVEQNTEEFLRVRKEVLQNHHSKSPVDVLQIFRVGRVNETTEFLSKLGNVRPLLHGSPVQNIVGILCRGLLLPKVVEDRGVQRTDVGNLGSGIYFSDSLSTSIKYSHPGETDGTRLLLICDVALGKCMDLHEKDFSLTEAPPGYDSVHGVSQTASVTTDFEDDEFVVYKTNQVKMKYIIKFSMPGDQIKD

ARTD7/PARP15 = biological target: T3, ARTD7/PARP15 (Homo sapiens, UniProt Q460N3); assay: ARTD profiling, ARTD7
T3 sequence (Q460N3 482-678 limits assumed): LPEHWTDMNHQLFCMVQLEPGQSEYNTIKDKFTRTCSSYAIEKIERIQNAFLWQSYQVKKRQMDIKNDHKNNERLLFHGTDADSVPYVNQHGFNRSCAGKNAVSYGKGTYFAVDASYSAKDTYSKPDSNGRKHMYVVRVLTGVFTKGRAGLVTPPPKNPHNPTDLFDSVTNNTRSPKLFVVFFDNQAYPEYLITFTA

ARTD8/PARP14 = ARTD8/PARP14 (Homo sapiens, UniProt Q460N5); assay: ARTD profiling, ARTD8
Chain of ARTD8/PARP14 (Q460N5 whole entry): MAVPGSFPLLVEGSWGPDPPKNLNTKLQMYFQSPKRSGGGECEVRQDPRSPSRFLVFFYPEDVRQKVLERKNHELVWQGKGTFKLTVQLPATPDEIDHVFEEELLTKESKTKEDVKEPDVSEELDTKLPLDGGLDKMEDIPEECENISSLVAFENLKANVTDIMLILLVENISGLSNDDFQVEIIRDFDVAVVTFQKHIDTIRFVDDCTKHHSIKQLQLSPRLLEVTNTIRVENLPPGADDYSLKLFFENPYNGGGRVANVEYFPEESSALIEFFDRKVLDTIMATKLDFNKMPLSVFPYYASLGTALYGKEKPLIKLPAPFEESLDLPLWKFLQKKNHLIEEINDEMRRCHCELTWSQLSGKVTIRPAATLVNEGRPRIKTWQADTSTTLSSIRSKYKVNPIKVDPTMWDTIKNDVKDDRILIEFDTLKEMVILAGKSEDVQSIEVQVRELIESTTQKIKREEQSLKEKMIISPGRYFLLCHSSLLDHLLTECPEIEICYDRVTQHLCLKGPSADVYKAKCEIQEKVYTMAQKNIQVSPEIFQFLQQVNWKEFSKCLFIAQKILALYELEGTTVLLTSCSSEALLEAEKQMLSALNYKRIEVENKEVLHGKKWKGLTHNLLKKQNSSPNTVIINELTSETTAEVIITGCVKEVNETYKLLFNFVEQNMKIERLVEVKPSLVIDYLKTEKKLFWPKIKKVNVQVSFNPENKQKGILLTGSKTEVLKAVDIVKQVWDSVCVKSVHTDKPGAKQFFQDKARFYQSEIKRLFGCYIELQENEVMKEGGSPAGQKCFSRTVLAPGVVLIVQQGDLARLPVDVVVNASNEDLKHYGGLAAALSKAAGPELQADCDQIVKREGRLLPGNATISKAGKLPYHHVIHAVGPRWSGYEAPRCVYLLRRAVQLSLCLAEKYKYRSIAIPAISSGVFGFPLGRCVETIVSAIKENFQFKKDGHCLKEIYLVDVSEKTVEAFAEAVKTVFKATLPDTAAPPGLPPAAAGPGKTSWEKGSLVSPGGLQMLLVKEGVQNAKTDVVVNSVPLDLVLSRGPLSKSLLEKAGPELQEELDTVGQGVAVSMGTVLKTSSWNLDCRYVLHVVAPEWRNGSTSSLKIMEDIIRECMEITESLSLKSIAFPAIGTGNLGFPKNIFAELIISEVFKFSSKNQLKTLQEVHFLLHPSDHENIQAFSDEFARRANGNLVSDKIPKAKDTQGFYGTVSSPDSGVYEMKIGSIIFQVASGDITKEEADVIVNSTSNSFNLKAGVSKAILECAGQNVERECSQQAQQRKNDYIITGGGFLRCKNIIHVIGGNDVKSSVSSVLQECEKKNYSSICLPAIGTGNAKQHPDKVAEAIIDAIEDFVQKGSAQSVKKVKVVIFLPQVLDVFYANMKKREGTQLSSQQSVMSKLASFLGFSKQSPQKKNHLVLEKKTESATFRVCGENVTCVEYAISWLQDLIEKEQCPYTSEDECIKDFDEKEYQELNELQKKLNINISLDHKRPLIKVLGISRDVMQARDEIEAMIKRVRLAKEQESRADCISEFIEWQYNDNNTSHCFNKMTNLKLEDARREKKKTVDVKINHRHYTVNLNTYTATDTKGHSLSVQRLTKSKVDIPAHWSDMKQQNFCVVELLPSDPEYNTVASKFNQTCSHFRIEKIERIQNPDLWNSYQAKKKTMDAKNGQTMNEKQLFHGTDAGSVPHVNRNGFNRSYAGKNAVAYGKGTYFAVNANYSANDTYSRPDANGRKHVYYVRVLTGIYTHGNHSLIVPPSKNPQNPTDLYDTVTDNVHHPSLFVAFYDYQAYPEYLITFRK

ARTD10/PARP10 = biological target: T4, ARTD10/PARP10 (Homo sapiens, UniProt Q53GL7); assay: ARTD profiling, ARTD10
T4 sequence (Q53GL7 806-1025 limits assumed): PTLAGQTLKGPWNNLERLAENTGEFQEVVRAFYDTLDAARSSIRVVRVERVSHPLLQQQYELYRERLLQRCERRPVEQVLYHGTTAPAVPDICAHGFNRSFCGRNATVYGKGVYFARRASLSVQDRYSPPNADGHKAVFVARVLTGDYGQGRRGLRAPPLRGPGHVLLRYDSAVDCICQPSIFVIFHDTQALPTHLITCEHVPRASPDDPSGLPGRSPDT

ARTD12/PARP12 = biological target: T5, ARTD12/PARP12 (Homo sapiens, UniProt Q9H0J9); assay: ARTD profiling, ARTD12
T5 sequence (Q9H0J9 484-698 limits assumed): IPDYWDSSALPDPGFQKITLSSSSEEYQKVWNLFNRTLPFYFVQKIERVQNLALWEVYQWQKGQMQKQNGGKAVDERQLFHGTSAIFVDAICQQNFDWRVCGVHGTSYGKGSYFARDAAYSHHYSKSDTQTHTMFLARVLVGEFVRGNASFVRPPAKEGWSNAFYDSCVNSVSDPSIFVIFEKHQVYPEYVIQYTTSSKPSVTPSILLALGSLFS

ARTD15/PARP16 = biological target: T6, ARTD15/PARP16 (Homo sapiens, UniProt Q8N5Y8); assay: ARTD profiling, ARTD15
T6 sequence (Q8N5Y8 1-322): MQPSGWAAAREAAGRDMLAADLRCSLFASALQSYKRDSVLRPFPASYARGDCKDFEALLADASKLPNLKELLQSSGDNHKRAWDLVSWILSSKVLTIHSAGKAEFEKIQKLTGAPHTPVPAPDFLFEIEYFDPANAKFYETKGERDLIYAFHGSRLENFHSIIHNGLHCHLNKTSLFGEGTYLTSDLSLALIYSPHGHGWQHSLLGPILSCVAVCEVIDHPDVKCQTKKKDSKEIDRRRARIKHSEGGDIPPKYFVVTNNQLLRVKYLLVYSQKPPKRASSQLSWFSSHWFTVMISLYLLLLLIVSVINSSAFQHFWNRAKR

[2] = parameters: method as in PMID 24130191; settings: previous study; read-out: IC50 in cell-based assay; cited from earlier work

Chain of TNKS2 (Q9H2K2 959-1164): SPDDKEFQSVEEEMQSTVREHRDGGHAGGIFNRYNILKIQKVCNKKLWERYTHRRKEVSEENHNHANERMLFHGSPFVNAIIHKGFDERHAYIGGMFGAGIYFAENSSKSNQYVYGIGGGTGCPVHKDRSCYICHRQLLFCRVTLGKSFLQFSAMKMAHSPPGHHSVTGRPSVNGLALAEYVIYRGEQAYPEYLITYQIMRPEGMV

IC50 (TNKS2)	IC50 (ARTD5/TNKS1)	IC50 (ARTD1/PARP1)	IC50 (ARTD2/PARP2)	IC50 (ARTD3/PARP3)	IC50 (ARTD4/PARP4)	IC50 (ARTD7/PARP15)	IC50 (ARTD8/PARP14)	IC50 (ARTD10/PARP10)	IC50 (ARTD12/PARP12)	IC50 (ARTD15/PARP16)	Structure (SMILES)	inhibition at 2 µM [1]	inhibition at 1 µM ([1]; HEK293, 1 µM compound, TCF/LEF reporter HEK293)	IC50 [2]
10 nM	10 nM	1000 nM	870 nM								CC1(c2ccc(-c3nc4ccccc4c(=O)[nH]3)cc2)CNC(=O)N1 (centres unmarked) [Compound 9]	72%		
16 nM	77 nM	1700 nM	860 nM	3800 nM	2000 nM	> 10000 nM	3200 nM	3100 nM	> 10000 nM	> 10000 nM	CN(CCO)c1ccc(-c2nc3ccccc3c(=O)[nH]2)cc1 [Compound 33]		20%	
3.3 nM	5.9 nM	374 nM	340 nM								CC1(c2ccc(-c3nc4ccccc4c(=O)[nH]3)cc2)NC(=O)NC1=O (centres unmarked) [Compound 2]	68%		~1000 nM
